Reference: patent US20260158177A1, “COMPOUNDS SPECIFIC TO GRANZYME B AND USES THEREOF” (CYTOSITE BIOPHARMA INC., priority 2021, published 2026)

Target: T1, human granzyme B (Homo sapiens, UniProt P10144)
T1 construct: from tissue; host or cells: human lymphocytes
Assay: Competitive binding assay of human granzyme B with Compound ^18F-21-Al radioligand
Conditions: competition with 20 nM Compound ^18F-21-Al, human lymphocyte GZB, 37° C., 90 minutes
Procedure: Purpose: To perform competitive binding assays with human granzyme B using Compound ^18F-21-Al to determine IC50 values of potential granzyme B ligands
Initial Plate Preparation (including total binding and non-specific binding): • 1. 78 μL of reaction buffer, as described above, is added to each well in a 96 well plate • 2. For wells used to examine total binding (defined as the binding of the radioligand in the absence of competitors), 2 μL of DMSO is added to give 1% final DMSO concentration for all wells • 3. For wells used to examine non-specific binding (defined as the binding of the radioligand in the presence of 10 μM 21), 2 μL of 1 mM Compound 21 is added to give a final concentration of 10 μM
• 1. Granzyme B (GZB, human lymphocyte) is diluted to 0.5 μg/mL using reaction buffer as described above • 2. 100 μL of 0.5 μg/mL diluted human GzB is added to each well, giving 50 ng per well and a final concentration of 0.25 μg/mL
• 1. DMSO or water is added to the respective compound vial to make 1 mM compound stock solution • 2. 1 mM compound stock solution is serially diluted by ½ log (3.16 fold) by adding 18.5 μL of compound stock to 40 μL of DMSO, mixing by pipetting up and down, and transferring 18.5 μL of the mixture to 40 μL of DMSO. This process is repeated to create 10 dilution points for test compounds. • 3. For wells used to examine ligand binding competition, 2 μL of each dilution is dispensed into the 96 well plates prepared as described above, giving a further dilution of 1/100.
• 1. 200 nM of Compound ^18F-21-Al (10× radioligand stock) is prepared in reaction buffer, aiming for approximately 2 million CPM per 20 μL of solution (input). • 2. 20 μL of radioligand stock is dispensed into each well to give a final concentration per well of 20 nM.
• 1. All 96 wells should have a final volume of 200 μL, and the assay plates are incubated at 37° C. for 90 minutes. • 2. All samples from the assay plates are transferred to MultiScreenHTS FB plates that have been presoaked in PBS buffer, pH 7.4, and filtered using a vacuum manifold. An additional 150 μL of PBS buffer is added to each well in the assay plates and combined to ensure transfer of any remaining samples • 3. MultiScreenHTS FB plates are washed 3× with 150 μL of PBS buffer. • 4. All filters are separated and transferred to individual tubes using Multiscreen punch tips and the Millipore multiple punch apparatus • 5. The sample set is analyzed using the Wizard 2480 automatic gamma-counter [Perkin Elmer] through a [^18F]-specific profile. Values are reported as decay-corrected counts per minute (CPM). • 6. Resulting CPM values are normalized and converted to % inhibition by the following equation:
[formula] • *the total bound fraction is typically less than 10% of the added radioligand under such assay conditions. • Resulting % inhibition values were plotted using the software GraphPad Prism 8.4.3 using the One site—Fit log IC50 equation to determine the IC50 value for each ligand.
[formula] • Y=% Inhibition • X=Log concentration of the cold competing ligand (M) • A=minimum Y (0%) • B=maximum Y (100%) • Log IC50=Log concentration of cold competing ligand (M) at half-way between minimum and maximum Y

T1 sequence (P10144 21-247): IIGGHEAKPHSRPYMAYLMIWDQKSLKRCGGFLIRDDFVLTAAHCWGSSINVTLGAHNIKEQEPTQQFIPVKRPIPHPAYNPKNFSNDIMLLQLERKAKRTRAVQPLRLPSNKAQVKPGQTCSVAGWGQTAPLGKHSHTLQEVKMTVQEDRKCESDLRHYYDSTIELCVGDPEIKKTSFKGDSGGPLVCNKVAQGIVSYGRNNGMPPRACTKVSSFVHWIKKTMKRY

Structure (SMILES) | IC50 [nM]
CC[C@H](C)[C@H](NC(=O)COCCNC(=O)[C@@H](CCC(=O)O)NC(=O)[C@@H](CCC(=O)O)NC(=O)CN1CCN(C(=O)CN2CCN3CCN(CC2)CC(=O)[O][Al]([F])[O]C(=O)C3)CC1)C(=O)N[C@H]1CCc2cccc3c2N(C1=O)[C@H](C(=O)NC1CC(=O)OC1O)C3 (stereo partly drawn) [Compound 10-Al, 2,2′-(7-(2-(4-((4R,7R,16S,17S)-4,7-bis(2-carboxyethyl)-16-(((3S,6S)-6-((2-hydroxy-5-oxotetrahydrofuran-3-yl)carbamoyl)-4-oxo-1,2,3,4,6,7-hexahydroazepino[3,2,1-hi]indol-3-yl)carbamoyl)-17-methyl-2,5,8,14-tetraoxo-12-oxa-3,6,9,15-tetraazanonadecyl)piperazin-1-yl)-2-oxoethyl)-1,4,7-triazonane-1,4-diyl)diacetic acid, aluminum fluoride complex (1:1)] | 3.6
CC[C@H](C)[C@H](NC(=O)COCCOCCNC(=O)COCCOCCNC(=O)[C@@H](CCC(=O)O)NC(=O)CN1CCN(C(=O)CN2CCN3CCN(CC2)CC(=O)[O][Al]([F])[O]C(=O)C3)CC1)C(=O)N[C@H]1CCc2cccc3c2N(C1=O)[C@H](C(=O)NC1CC(=O)OC1O)C3 (stereo partly drawn) [Compound 11-Al, 2,2′-(7-(2-(4-((4R,25S,26S)-4-(2-carboxyethyl)-25-(((3S,6S)-6-((2-hydroxy-5-oxotetrahydrofuran-3-yl)carbamoyl)-4-oxo-1,2,3,4,6,7-hexahydroazepino[3,2,1-hi]indol-3-yl)carbamoyl)-26-methyl-2,5,14,23-tetraoxo-9,12,18,21-tetraoxa-3,6,15,24-tetraazaoctacosyl)piperazin-1-yl)-2-oxoethyl)-1,4,7-triazonane-1,4-diyl)diacetic acid, aluminum fluoride complex (1:1)] | 2.4
CC[C@H](C)[C@H](NC(=O)CCNC(=O)CCNC(=O)[C@@H](CCC(=O)O)NC(=O)CN1CCN(C(=O)CN2CCN3CCN(CC2)CC(=O)[O][Al]([F])[O]C(=O)C3)CC1)C(=O)N[C@H]1CCc2cccc3c2N(C1=O)[C@H](C(=O)NC1CC(=O)OC1O)C3 (stereo partly drawn) [Compound 12-Al, 2,2′-(7-(2-(4-((4R,15S,16S)-4-(2-carboxyethyl)-15-(((3S,6S)-6-((2-hydroxy-5-oxotetrahydrofuran-3-yl)carbamoyl)-4-oxo-1,2,3,4,6,7-hexahydroazepino[3,2,1-hi]indol-3-yl)carbamoyl)-16-methyl-2,5,9,13-tetraoxo-3,6,10,14-tetraazaoctadecyl)piperazin-1-yl)-2-oxoethyl)-1,4,7-triazonane-1,4-diyl)diacetic acid, aluminum fluoride complex (1:1)] | 4.2
CC[C@H](C)[C@H](NC(=O)CCNC(=O)CCNC(=O)CN(CC(=O)O)C(=O)CN1CCN(C(=O)CN2CCN3CCN(CC2)CC(=O)[O][Al]([F])[O]C(=O)C3)CC1)C(=O)N[C@H]1CCc2cccc3c2N(C1=O)[C@H](C(=O)NC1CC(=O)OC1O)C3 (stereo partly drawn) [Compound 13-Al, 2,2′-(7-(2-(4-((15S,16S)-3-(carboxymethyl)-15-(((3S,6S)-6-((2-hydroxy-5-oxotetrahydrofuran-3-yl)carbamoyl)-4-oxo-1,2,3,4,6,7-hexahydroazepino[3,2,1-hi]indol-3-yl)carbamoyl)-16-methyl-2,5,9,13-tetraoxo-3,6,10,14-tetraazaoctadecyl)piperazin-1-yl)-2-oxoethyl)-1,4,7-triazonane-1,4-diyl)diacetic acid, aluminum fluoride complex (1:1)] | 4.2
CC[C@H](C)[C@H](NC(=O)CC[C@@H](NC(=O)CN1CCN(C(=O)CN2CCN3CCN(CC2)CC(=O)[O][Al]([F])[O]C(=O)C3)CC1)C(=O)O)C(=O)N[C@H]1CCc2cccc3c2N(C1=O)[C@H](C(=O)NC1CC(=O)OC1O)C3 (stereo partly drawn) [Compound 14-Al, 2,2′-(7-(2-(4-(2-(((1R)-1-carboxy-4-(((2S,3S)-1-(((3S,6S)-6-((2-hydroxy-5-oxotetrahydrofuran-3-yl)carbamoyl)-4-oxo-1,2,3,4,6,7-hexahydroazepino[3,2,1-hi]indol-3-yl)amino)-3-methyl-1-oxopentan-2-yl)amino)-4-oxobutyl)amino)-2-oxoethyl)piperazin-1-yl)-2-oxoethyl)-1,4,7-triazonane-1,4-diyl)diacetic acid, aluminum fluoride complex (1:1)] | 2.7
CC[C@H](C)[C@H](NC(=O)CCNC(=O)CCNC(=O)[C@H](CC(C(=O)O)C(=O)O)NC(=O)CN1CCN(C(=O)CN2CCN3CCN(CC2)CC(=O)[O][Al]([F])[O]C(=O)C3)CC1)C(=O)N[C@H]1CCc2cccc3c2N(C1=O)[C@H](C(=O)NC1CC(=O)OC1O)C3 (stereo partly drawn) [Compound 15-Al, 2-((2S)-2-(2-(4-(2-(4,7-bis(carboxymethyl)-1,4,7-triazonan-1-yl)acetyl)piperazin-1-yl)acetamido)-3-((3-((3-(((2S,3S)-1-(((3S,6S)-6-((2-hydroxy-5-oxotetrahydrofuran-3-yl)carbamoyl)-4-oxo-1,2,3,4,6,7-hexahydroazepino[3,2,1-hi]indol-3-yl)amino)-3-methyl-1-oxopentan-2-yl)amino)-3-oxopropyl)amino)-3-oxopropyl)amino)-3-oxopropyl) malonic acid, aluminum fluoride complex (1:1)] | 2.5
CC[C@H](C)[C@H](NC(=O)CCNC(=O)CCNC(=O)[C@@H](CCC(=O)O)NC(=O)[C@@H](CCC(=O)O)NC(=O)CN1CCN(C(=O)CN2CCN3CCN(CC2)CC(=O)[O][Al]([F])[O]C(=O)C3)CC1)C(=O)N[C@H]1CCc2cccc3c2N(C1=O)[C@H](C(=O)NC1CC(=O)OC1O)C3 (stereo partly drawn) [Compound 16-Al, 2,2′-(7-(2-(4-((4R,7R,18S,19S)-4,7-bis(2-carboxyethyl)-18-(((3S,6S)-6-((2-hydroxy-5-oxotetrahydrofuran-3-yl)carbamoyl)-4-oxo-1,2,3,4,6,7-hexahydroazepino[3,2,1-hi]indol-3-yl)carbamoyl)-19-methyl-2,5,8,12,16-pentaoxo-3,6,9,13,17-pentaazahenicosyl)piperazin-1-yl)-2-oxoethyl)-1,4,7-triazonane-1,4-diyl)diacetic acid, aluminum fluoride complex (1:1)] | 4.2
CC[C@H](C)[C@H](NC(=O)CC[C@H](NC(=O)CN1CCN(C(=O)CN2CCN3CCN(CC2)CC(=O)[O][Al]([F])[O]C(=O)C3)CC1)C(=O)O)C(=O)N[C@H]1CCc2cccc3c2N(C1=O)[C@H](C(=O)NC1CC(=O)OC1O)C3 (stereo partly drawn) [Compound 17-Al, 2,2′-(7-(2-(4-(2-(((1S)-1-carboxy-4-(((2S,3S)-1-(((3S,6S)-6-((2-hydroxy-5-oxotetrahydrofuran-3-yl)carbamoyl)-4-oxo-1,2,3,4,6,7-hexahydroazepino[3,2,1-hi]indol-3-yl)amino)-3-methyl-1-oxopentan-2-yl)amino)-4-oxobutyl)amino)-2-oxoethyl)piperazin-1-yl)-2-oxoethyl)-1,4,7-triazonane-1,4-diyl)diacetic acid, aluminum fluoride complex (1:1)] | 2.7
